Results on 1 molecule are retold here after publication PMC4479019, “Atomistic design of microbial opsin-based blue-shifted optogenetics tools” (Nature Communications, 2015).

What all share (assay): absorption spectrum of purified protein
Holding throughout (type): binding
What all share (details): covalent (protonated Schiff base); 1 M NaCl, 0.05% DDM, pH 7.0

The target of assay [1] is T1, GR (Gloeobacter violaceus, UniProt Q7NP59).
T1 construct: gene gll0198
T1 sequence (Q7NP59 1-298): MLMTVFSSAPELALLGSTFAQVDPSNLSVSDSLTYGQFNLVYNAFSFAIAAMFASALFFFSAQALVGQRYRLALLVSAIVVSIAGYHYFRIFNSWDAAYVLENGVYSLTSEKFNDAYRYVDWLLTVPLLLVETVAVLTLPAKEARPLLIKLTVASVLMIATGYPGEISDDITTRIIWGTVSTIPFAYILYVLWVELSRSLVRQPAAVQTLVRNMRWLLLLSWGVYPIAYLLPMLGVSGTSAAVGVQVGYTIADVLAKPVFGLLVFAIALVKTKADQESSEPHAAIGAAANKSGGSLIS

Assay [2] deals with T2, AR3 (archaerhodopsin-3) (Halorubrum sodomense, UniProt P96787, M128A/G132A/S151G/A225T).
T2 construct: gene aop3
T2 sequence (P96787 7-258 M128A/G132A/S151G/A225T): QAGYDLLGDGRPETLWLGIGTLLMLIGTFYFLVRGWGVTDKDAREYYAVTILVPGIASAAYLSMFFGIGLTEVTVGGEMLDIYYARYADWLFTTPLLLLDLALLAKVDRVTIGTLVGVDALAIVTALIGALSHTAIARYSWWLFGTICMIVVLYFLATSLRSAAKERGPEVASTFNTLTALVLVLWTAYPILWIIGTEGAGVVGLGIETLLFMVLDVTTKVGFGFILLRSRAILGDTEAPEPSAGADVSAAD

Assay [3] concerns the target T3, HwBR (Haloquadratum walsbyi, UniProt Q18DH8).
T3 construct: gene bop1
T3 sequence (Q18DH8 7-254): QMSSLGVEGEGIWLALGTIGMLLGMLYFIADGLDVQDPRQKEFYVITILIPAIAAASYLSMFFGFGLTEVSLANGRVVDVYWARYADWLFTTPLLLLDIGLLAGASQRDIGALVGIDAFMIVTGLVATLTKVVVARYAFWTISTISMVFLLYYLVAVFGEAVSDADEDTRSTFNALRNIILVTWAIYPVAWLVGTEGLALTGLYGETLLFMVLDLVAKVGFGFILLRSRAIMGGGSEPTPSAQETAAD

Each structure is given as a SMILES string.

On to `CC1=C(/C=C/C(C)=C/C=C/C(C)=C/C=O)C(C)(C)CCC1` [all-trans retinal], for which the “absorption spectrum of purified protein” value was “Absorption spectra of wild-type and colour variants of HwBR (a) and GR (b)” in assay [1]; “The M128A/G132A/S151G/A225T and M128A/S151A/A225T mutants slightly reduced the shifts” in assay [2]; “Absorption spectra of wild-type and colour variants of HwBR (a) and GR (b)” in assay [3].
